According to patent US9713602B1, “Method for facilitating the oxygen release of hemoglobin-based blood substitutes” (National Sun Yat-sen University, priority 2016, dated 2017):
“Also recorded” adds a separate entry of the source. One block for each molecule: values may come before it.

What was measured:
hemoglobin = hemoglobin (Homo sapiens, UniProt P68871+P69905); test: oxygen equilibrium curves / P50 value of hemoglobin; assay type: biochemical; details: for effect with 2,3-BPG in modulating hemoglobin allostery: FIG. 2
Chain of hemoglobin (P69905 2-142 limits assumed): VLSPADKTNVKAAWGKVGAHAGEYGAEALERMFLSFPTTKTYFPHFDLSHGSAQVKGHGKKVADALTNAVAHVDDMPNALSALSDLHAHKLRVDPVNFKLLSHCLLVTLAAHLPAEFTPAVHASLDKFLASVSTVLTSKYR
Chain of hemoglobin (P68871 2-147 limits assumed): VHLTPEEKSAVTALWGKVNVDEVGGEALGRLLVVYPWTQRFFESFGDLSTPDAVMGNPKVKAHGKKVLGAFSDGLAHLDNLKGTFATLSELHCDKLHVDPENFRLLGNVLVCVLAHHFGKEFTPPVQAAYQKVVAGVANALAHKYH

fetal hemoglobin (HbF) = fetal hemoglobin (HbF) (Homo sapiens, UniProt P69892+P69905); test: oxygen equilibrium curves / P50 value of fetal hemoglobin (HbF); assay type: biochemical; details: for shift of the oxygen equilibrium curve of fetal hemoglobin (HbF): 0.6-4.0 mM compound with 0.6 or 2.5 mM 2,3-BPG (FIG. 9, 10); for oxygen affinity modulating effect (increase of P50 value) on fetal hemoglobin compared with 2,3-BPG: FIG. 8, varying concentrations; for oxygen release efficiency of fetal hemoglobin (HbF) relative to normal hemoglobin: with 2,3-BPG (FIG. 9, 10)
Chain of fetal hemoglobin (HbF) (P69905 2-142 limits assumed): as the sequence (P69905 2-142 limits assumed) above
Chain of fetal hemoglobin (HbF) (P69892 2-147 limits assumed): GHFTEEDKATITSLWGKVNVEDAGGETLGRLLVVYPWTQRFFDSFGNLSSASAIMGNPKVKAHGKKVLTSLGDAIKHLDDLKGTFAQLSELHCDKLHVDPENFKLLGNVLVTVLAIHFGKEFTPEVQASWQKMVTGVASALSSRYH

oxygen release efficiency of hemoglobin (hemoglobin; 1.2 mM 2,3-BPG, PO2 20 mmHg): 40% | oxygen saturation fraction of hemoglobin (hemoglobin; 1.2 mM 2,3-BPG, PO2 20 mmHg (FIG. 7)): approximately 60% | oxygen saturation fraction of hemoglobin (hemoglobin; 12 mM 2,3-BPG, fixed oxygen partial pressure of 20 mmHg, 80% where no 2,3-BPG is present): 35% | oxygen release efficiency of hemoglobin (hemoglobin; 12 mM 2,3-BPG, oxygen partial pressure 20 mmHg, 20% without 2,3-BPG): 65% | P50 value of hemoglobin (hemoglobin; approximately 4 mM 2,3-BPG, no phthalide compound): 18.8 mmHg | oxygen release efficiency of normal cells (hemoglobin; varying concentrations of 2,3-BPG, PO2 of normal cells, from 20%): ~65% | oxygen saturation fraction of hemoglobin (hemoglobin; varying concentrations of 2,3-BPG, brain physiological PO2 (33.8±2.6 mmHg), from 90% (FIG. 4)): ~70% | oxygen release efficiency of hemoglobin (hemoglobin; varying concentrations of 2,3-BPG, brain physiological PO2, from 10%): 30%
Compound: O=C(O)C(COP(=O)(O)O)OP(=O)(O)O (centres unmarked) [2,3-BPG, 2,3-bisphosphorglycerate]
modulating effect of 2,3-BPG on fetal hemoglobin (HbF) relative to normal hemoglobin (fetal hemoglobin (HbF)): not as effective as that on the normal hemoglobin

Compound: CCC/C=C1\OC(=O)c2ccccc21 [Z-butylidenephthalide]
shift of the oxygen equilibrium curve of fetal hemoglobin (HbF) (fetal hemoglobin (HbF)): effectively shift the oxygen equilibrium curve for the fetal hemoglobin (HbF) to the right; also recorded: effectively shift the oxygen equilibrium curve of the fetal hemoglobin (HbF) to the right | oxygen affinity modulating effect (increase of P50 value) on fetal hemoglobin compared with 2,3-BPG (fetal hemoglobin (HbF)): stronger modulating effect than 2,3-BPG; also recorded: higher than that of 2,3-BPG | oxygen release efficiency of fetal hemoglobin (HbF) relative to normal hemoglobin (fetal hemoglobin (HbF)): achieve the same oxygen release efficiency as the normal hemoglobin

effect with 2,3-BPG in modulating hemoglobin allostery (hemoglobin): synergistic effect
Compound: CCC/C=C1\OC(=O)C2=C1CCC=C2 [Z-ligustilide]
shift of the oxygen equilibrium curve of fetal hemoglobin (HbF) (fetal hemoglobin (HbF)): effectively shift the oxygen equilibrium curve for the fetal hemoglobin (HbF) to the right | oxygen affinity modulating effect (increase of P50 value) on fetal hemoglobin compared with 2,3-BPG (fetal hemoglobin (HbF)): stronger modulating effect than 2,3-BPG; also recorded: higher than that of 2,3-BPG | oxygen release efficiency of fetal hemoglobin (HbF) relative to normal hemoglobin (fetal hemoglobin (HbF)): achieve the same oxygen release efficiency as the normal hemoglobin

Compound: CCC/C=C1\OC(=O)C2=C1CC[C@@H](O)[C@@H]2O [senkyunolide I]
effect with 2,3-BPG in modulating hemoglobin allostery (hemoglobin): synergistic effect
